Reference: paper PMC9561728, “Safety and efficacy of a GLP-1 and glucagon receptor dual agonist mazdutide (IBI362) 9 mg and 10 mg in Chinese adults with overweight or obesity: A randomised, placebo-controlled, multiple-ascending-dose phase 1b trial” (eClinicalMedicine, 2022)

Assays:
human glucagon receptors = settings: in vitro; cited from earlier work
Procedure: (§1) Mazdutide (also known as IBI362 or LY3305677) is a once-weekly mammalian oxyntomodulin analogue. […] In a phase 1b clinical trial in Chinese adults with overweight or obesity, mazdutide dosed up to 6 mg achieved 12-week mean body weight loss up to 6.4%.[11] Given the favourable safety profile and the robust body weight loss achieved in the low-dose cohort ...

mouse GLP-1 receptors = settings: in vitro; cited from earlier work
Procedure: as §1

[1] = system: Chinese adults with overweight or obesity; settings: low dose cohorts; cited from earlier work
Procedure: Summary Background Mazdutide (also known as IBI362 or LY3305677), a novel once-weekly glucagon-like peptide-1 (GLP-1) and glucagon receptor dual agonist, achieved 12-week body weight loss up to 6.4% at doses up to 6 mg in Chinese adults with overweight or obesity. We further explored the safety and efficacy of mazdutide dosed up to 9 mg and 10 mg. Methods In this randomised, placebo-controlled, multiple-ascending-dose phase 1b trial, we enrolled adults (aged 18-75 years, both inclusive) with overweight (body-mass index [BMI] ≥24 kg/m^2) accompanied by hyperphagia and/or at least one obesity-re ... || A PubMed search on July 4, 2022, with the terms “glucagon-like peptide-1″, [AND] “glucagon receptor”, [AND] “dual agonist”, in the Title or Abstract yielded 31 results. […] Mazdutide dosed up to 6 mg achieved 12-week mean body weight loss up to 6.4% in Chinese adults with overweight or obesity. || Mazdutide (also known as IBI362 or LY3305677) is a once-weekly mammalian oxyntomodulin analogue. […] In a phase 1b clinical trial in Chinese adults with overweight or obesity, mazdutide dosed up to 6 mg achieved 12-week mean body weight loss up to 6.4%.[11] Given the favourable safety profile and the robust body weight loss achieved in the low-dose cohort ... || (+ 2 further places)

[2] = system: Chinese adults with overweight or obesity; experiment: Immunogenicity: anti-drug antibodies and neutralizing antibodies, phase 1b trial; format: in vivo, human; settings: for Participants who developed treatment-induced anti-mazdutide antibodies: n = 8
Procedure: (§2) Secondary outcomes included pharmacokinetics, assessed by maximum observed plasma concentration (Cmax), time at which Cmax was observed (Tmax), terminal elimination half-life (t½), and area under the curve from time zero to 168 h after the first dose (AUC0–168 h) and immunogenicity, assessed by titters of anti-drug antibodies (ADAs) and neutralizing antibodies. Secondary efficacy outcomes included the change from baseline to week 12 (9 mg cohort) or week 16 (10 mg cohort) in body weight, waist circumference, BMI, as well as the change from baseline in HbA1c, lipids, transaminase and serum uric acid levels.

[3] = system: Chinese adults with overweight or obesity; experiment: Change from baseline in body weight, BMI and waist circumference (MMRM), phase 1b trial; format: in vivo, human; settings: for Participants who achieved 10% body weight loss or more / Participants who achieved 15% body weight loss or more: during the study; for Participants who achieved 10% body weight loss or more / Participants who achieved 15% body weight loss or more / CFB in BMI / CFB in body weight / CFB in waist circumference / Percent CFB in body weight: n = 8
Procedure: as §2
The sample size of 12 participants per cohort was empirically determined to provide preliminary safety, tolerability, pharmacokinetics data while minimizing the number of participants. No formal hypothesis testing was planned. Participants receiving placebo were pooled for analysis on the change from baseline in body weight, waist circumference and BMI.
The analyses for the change from baseline in body weight, waist circumference and BMI were performed using mixed-effect model for repeated measures (MMRM), with least squares mean change or mean percent change from baseline at each follow-up time analysed using a restricted maximum likelihood (REML)‐based repeated measures approach in combination with the Newton Raphson Algorithm. The MMRM included the corresponding baseline value, treatment, visit and treatment-by-visit as fixed effects and patient as a random effect, with an unstructured covariance matrix used. In case of non-converge, matrix like Variance Components and Compound Symmetry will be tested in a subsequent order until model‐convergence is achieved. The Kenward-Roger degree of freedom was used in estimating fixed effects. No missing data imputation was conducted. Point estimate of treatment difference versus placebo at week 12 for the 9 mg cohort and at week 16 for the 10 mg cohort were provided, together with corresponding 95% CI and nominal p value.

[4] = Isoelectric point (PI) of the study drug; format: physicochemical; settings: study protocol
Procedure: 5.2.1 Physical and chemical characteristi cs of the study drug
Molecular Weight: 4560.32 Daltons
Description: White to off-white powder
Solubility: Solvent: 20 mM Tris buffer at pH 8.0 and 150 mM sodium chloride.
Solubility: Not less than 10 mg/mL at 25 ℃.
5.2.2 Study Drug Strength and Manufacturer
The IB I362 dru g produ ct is IBI362 for injection an d consists of 2 mg IB I362 and the […]
contents are reconstituted with sterile water for injection to obtain a clear solution of […]
ingredients tris (hydroxymethyl) aminomethane, mannitol, and sucrose." The vial contents are reconstituted with sterile water for injection to obtain a clear solution devoid […]
The dru g product stren gt h used in this stud y was 2 mg/vial, and the placebo strengt h matched the drug product and was provided b y the Sponsor.
The drug product and placebo should be stored under refrigerated conditions (2 ℃ […]
5.2.4 Mode of administration
Both IBI362 and placebo will be administered by subcutaneous injection once a week. Each dose should be prepared and injected by the stud y nurse. See the Instructions for Use fo rdetails of the preparation and use of the study drug.
5.3.1 Prohibited Medications
The following m edicatio ns and measur es ar e cont raindicated:
1. Growth hormone and its analogues;
2. Any systemic corticosteroid (including intravenous, oral, intra-articular) administered for ≥ 7 da ys. […]

Japanese and US subjects = settings: single-dose (0.03, 0.1, 0.3, 1.0, 2.5, 5.0 mg) escalation, ref earlier single-dose studies quoted in protocol; cited from earlier work
[5] = 9 mg cohort, week 12, LS mean (SE), MMRM
[6] = 9 mg cohort, week 12, estimate (95% CI), MMRM
[7] = 10 mg cohort, week 16, LS mean (SE), MMRM
[8] = 10 mg cohort, week 16, estimate (95% CI), MMRM

**Q.** With `CC(C)C[C@H](NC(=O)[C@H](CC(C)C)NC(=O)[C@H](Cc1c[nH]c2ccccc12)NC(=O)[C@H](CCC(=O)O)NC(=O)[C@@H](NC(=O)[C@H](Cc1ccccc1)NC(=O)[C@H](CCC(=O)O)NC(=O)[C@H](CCCCNC(=O)COCCOCCNC(=O)COCCOCCNC(=O)CC[C@H](NC(=O)CCCCCCCCCCCCCCCCCCC(=O)O)C(=O)O)NC(=O)[C@H](C)NC(=O)[C@H](CCCCN)NC(=O)[C@H](CCCCN)NC(=O)[C@H](CCC(=O)O)NC(=O)[C@H](CC(=O)O)NC(=O)[C@H](CC(C)C)NC(=O)[C@H](Cc1ccc(O)cc1)NC(=O)[C@H](CCCCN)NC(=O)[C@H](CO)NC(=O)[C@H](Cc1ccc(O)cc1)NC(=O)[C@H](CC(=O)O)NC(=O)[C@H](CO)NC(=O)[C@@H](NC(=O)[C@H](Cc1ccccc1)NC(=O)[C@@H](NC(=O)CNC(=O)[C@H](CCC(N)=O)NC(=O)C(C)(C)NC(=O)[C@@H](N)Cc1c[nH]cn1)[C@@H](C)O)[C@@H](C)O)C(C)C)C(=O)N[C@@H](CCC(=O)O)C(=O)NCC(=O)NCC(=O)N1CCC[C@H]1C(=O)N[C@@H](CO)C(=O)N[C@@H](CO)C(=O)NCC(N)=O` [Mazdutide] as the compound, how does the “Binding to human glucagon receptors” value (human glucagon receptors) read?
**A.** Its value is “potently bound”.

**Q.** And the “Binding to mouse GLP-1 receptors” value (mouse GLP-1 receptors)?
**A.** Its value is “potently bound”.

**Q.** What about the “Incidence of abdominal distension” value [1] of the same compound?
**A.** Its value is 12.5%.

**Q.** And the Incidence of diarrhoea [1]?
**A.** Its Incidence of diarrhoea is 37.5%.

**Q.** What about the Incidence of nausea [1] of the same compound?
**A.** The Incidence of nausea was “up to 37.5%”.

**Q.** And the Incidence of vomiting [1]?
**A.** The Incidence of vomiting was 12.5%.

**Q.** And the “Participants who developed treatment-induced anti-mazdutide antibodies” value ([2]; 9 mg cohort)?
**A.** Its value is “Two”.

**Q.** What about the “Participants who developed treatment-induced anti-mazdutide antibodies” value ([2]; 10 mg cohort) of the same compound?
**A.** The value was “four”.

**Q.** And the “Participants who developed neutralizing antibodies” value ([2]; 10 mg cohort, attenuated cAMP generation in CHO cells over-expressing human recombinant glucagon receptors)?
**A.** The value was “One”.

**Q.** And the “Participants who achieved 10% body weight loss or more” value ([3]; 9 mg cohort)?
**A.** The value was 50%.

**Q.** And the “Participants who achieved 15% body weight loss or more” value ([3]; 9 mg cohort)?
**A.** Its value is 25%.

**Q.** What about the “CFB in BMI” value [3, 5] of the same compound?
**A.** The value was −3.51 (0.46) kg/m^2.

**Q.** And the “CFB in body weight” value [3, 5]?
**A.** Its value is −9.23 (1.2) kg.

**Q.** What about the “CFB in waist circumference” value [3, 5] of the same compound?
**A.** Its value is −5.79 (1.45) cm.

**Q.** What about the “Percent CFB in body weight” value [3, 5] of the same compound?
**A.** The value was −11.7 (1.5) %.

**Q.** And the “CFB in BMI, ETD versus pooled placebo” value [3, 6]?
**A.** Its value is −2.96 (−4.37, −1.54) kg/m^2.

**Q.** What about the “CFB in body weight, ETD versus pooled placebo” value [3, 6] of the same compound?
**A.** Its value is −7.65 (−11.32, −3.98) kg.

**Q.** What about the “CFB in waist circumference, ETD versus pooled placebo” value [3, 6] of the same compound?
**A.** The value was −5.15 (−9.63, −0.67) cm.

**Q.** What about the “Percent CFB in body weight, ETD versus pooled placebo” value [3, 6] of the same compound?
**A.** Its value is −9.8 (−14.4, −5.3) %.

**Q.** And the “Participants who achieved 10% body weight loss or more” value ([3]; 10 mg cohort)?
**A.** Its value is 50%.

**Q.** And the “Participants who achieved 15% body weight loss or more” value ([3]; 10 mg cohort)?
**A.** The value was 25%.

**Q.** What about the “CFB in BMI” value [3, 7] of the same compound?
**A.** The value was −2.96 (0.56) kg/m^2.

**Q.** And the “CFB in body weight” value [3, 7]?
**A.** The value was −7.62 (1.39) kg.

**Q.** And the “CFB in waist circumference” value [3, 7]?
**A.** Its value is −3.36 (1.59) cm.

**Q.** And the “Percent CFB in body weight” value [3, 7]?
**A.** Its value is −9.5 (1.7) %.

**Q.** And the “CFB in BMI, ETD versus placebo” value [3, 8]?
**A.** Its value is −1.89 (−3.63, −0.15) kg/m^2.

**Q.** What about the “CFB in body weight, ETD versus placebo” value [3, 8] of the same compound?
**A.** Its value is −4.76 (−9.10, −0.43) kg.

**Q.** And the “CFB in waist circumference, ETD versus placebo” value [3, 8]?
**A.** The value was −1.18 (−7.65, 5.29) cm.

**Q.** What about the “Percent CFB in body weight, ETD versus placebo” value [3, 8] of the same compound?
**A.** Its value is −6.2 (−11.5, −0.9) %.

**Q.** What about the PI [4] of the same compound?
**A.** Its PI is 5.2.

**Q.** What about the “maximum tolerated dose (MTD) of single-dose study” value (Japanese and US subjects) of the same compound?
**A.** The value was 2.5 mg.
